Entries after “also recorded” stand apart in the source; their conditions may differ.
What was measured:
ear of the BALB/c mouse = assay: Tolerance study: anti-irritant in preventive treatment before topical Differin gel, ear thickness (edema); type: in vivo; conditions: for effect of the anti-irritant on the irritation caused by Differin gel (in words): anti-irritant applied before Differin gel; for % AUC inhibition vs Differin (reduction of edema/irritation due to Differin gel): anti-irritant solution followed by Differin gel, D1-D6, AUC D2-D19
Protocol: The anti-irritants used are formulated, unless otherwise indicated, in an ethanol/water (50:50) vehicle at the concentrations shown in the table below.
The goal of the present study is to compare the irritant power of a reference gel, comprising 0.1% adapalene, when this treatment is preceded or not preceded by treatment with an anti-irritant.
The treatment consists of a daily topical application (20 μl) of anti-irritant, formulated in an aqueous/alcoholic vehicle (50% ethanol and 50% water by volume), on the internal face of the right ear of BALB/c mice divided into 15 groups (female mice approximately 9 weeks old), followed by a topical application (20 μl) of Differin® gel (reference gel comprising 0.1% adapalene) at the rate of one application of each formulation per day for 6 days.
Evaluation is carried out by measurements of the thickness of the ear by means of the Oditest and by clinical observation of the animals from the 2nd to 19th day.

[1] = test system: comedones on the back of the Rhino mouse; assay: Comedolytic activity of Differin gel alone or preceded by an anti-irritant on the Rhino mouse; type: in vivo; conditions: split treatment, 18 days
From the text: The goal of the present study is to compare the comedolytic activity of Differin® gel (reference gel comprising 0.1% adapalene) whether this treatment is preceded or not preceded by a treatment with an anti-irritant.

Q: Which “effect of the anti-irritant on the irritation caused by Differin gel (in words)” value (“effect … by Differin gel (in words)” below) (ear of the BALB/c mouse) does the source give for `O=C(O)CN(CCN(CC(=O)O)CC(=O)O)CC(=O)O` [EDTA] here?
A: The value was “effective in reducing the irritation”.

Q: Which “effect … by Differin gel (in words)” value (ear of the BALB/c mouse) does the source give for `NC(=O)NC1NC(=O)NC1=O` (stereo not drawn) [allantoin, Allantoin] here?
A: The value was “effective in reducing the irritation”.

Q: What about the “effect on the comedolytic activity of Differin gel (in words)” value [1] of the same compound?
A: The value was “does not reduce the comedolytic activity”.

Q: Which “effect … by Differin gel (in words)” value (ear of the BALB/c mouse) does the source give for `O=S(=O)([O-])[O-].[Zn+2]` [zinc sulfate, Zinc sulfate] here?
A: The value was “a reduction in the irritation; also recorded: effective in reducing the irritation”.

Q: What about the “% AUC inhibition vs Differin (reduction of edema/irritation due to Differin gel)” value (ear of the BALB/c mouse) of the same compound?
A: The value was 25%.

Q: Which results are given for `O=[N+]([O-])[O-].O=[N+]([O-])[O-].[Sr+2]` [strontium nitrate, Strontium nitrate]?
A: effect of the anti-irritant on the irritation caused by Differin gel (in words) (ear of the BALB/c mouse): effective in reducing the irritation; effect on the comedolytic activity of Differin gel (in words) [1]: does not reduce the comedolytic activity

Q: `CC1(C)[C@@H](O)CC[C@]2(C)[C@H]3C(=O)C=C4[C@@H]5C[C@@](C)(C(=O)O)CC[C@]5(C)CC[C@@]4(C)[C@]3(C)CC[C@@H]12` [enoxolone, Enoxolone, reference compound] was tested. Which “effect … by Differin gel (in words)” value (ear of the BALB/c mouse) did it give?
A: Its value is “virtually no effect; also recorded: do not have an effect”.

Q: For “Potassium disodium salt of β-glycyrrhizic acid [reference compound]”, which “effect … by Differin gel (in words)” value (ear of the BALB/c mouse) is on record?
A: Its value is “virtually no effect; also recorded: do not have an effect”.

Q: What does the source list for Sodium choleate?
A: effect of the anti-irritant on the irritation caused by Differin gel (in words) (ear of the BALB/c mouse): slightly reduces; also recorded: effective in reducing the irritation; % AUC inhibition vs Differin (reduction of edema/irritation due to Differin gel) (ear of the BALB/c mouse): 9%

Q: `O.O.O.O.O.O.[Cl-].[Cl-].[Sr+2]` [strontium chloride hexahydrate, Strontium chloride hexahydrate] was tested. Which “effect … by Differin gel (in words)” value (ear of the BALB/c mouse) did it give?
A: The value was “effective in reducing the irritation”.

Source: US20090098219A1, “Cosmetic/pharmaceutical compositions comprising retinoids and anti-irritants and treatment of keratinization disorders therewith” (GALDERMA RESEARCH & DEVELOPMENT, priority 2005, published 2009)
